Reference: US12398141B2 (SHANGHAI SYNERGY PHARMACEUTICAL SCIENCES CO., LTD, priority 2019, dated 2025)
Values belong to the molecule of their own block, whether it stands above or below them.

Legend:
[1] = system: Blast T cell; test: Cell proliferation test of IL-2 stimulated Blast T cell; format: cell-based; settings: Homo sapiens; IL-2 stimulated Blast T cell proliferation, 72 hours
Method: Inhibiting test of the compounds of the invention on proliferation of Blast T cell and TF-1 cell (American type culture collection) was carried out by the following method. The tested compounds […], and […] were dissolved in dimethyl sulfoxide from 0.0006 to 10 μM in quadruplicate dilutions. […] 10 μg/ml […] was added to stimulate and obtain cells with a density of 2×10^6/mL, which were incubated for 3 days. The cells were washed with phosphate buffer for three times and IL-2 (100 u/ml) was added to stimulate for 1 week. Cells were suspended using the culture medium and seeded at 5×10^4 cell/well density into 96-well plates, and incubated for 1 h with the prepared test compound or DMSO control at various concentrations from 0.0006 to 10 μM diluted by 4-fold volume. After incubation with 20 u/ml of IL-2 (50 μl/well without reference well) for 72 hours, Celltiter Glo® reagent (Promega, G7571) was added and mixed for 5 minutes, then incubated for 30 minutes at room temperature. The luminescence value was read on SpectraMax L (Molecular Device). […] The IC50 values of the corresponding compounds were then obtained by fitting by using the XLFit fitting tool in excel.

[2] = system: TF-1 cell; test: TF-1 cell proliferation test; format: cell-based; settings: Homo sapiens, 72 h
Method: Inhibiting test of the compounds of the invention on proliferation of Blast T cell and TF-1 cell (American type culture collection) was carried out by the following method. The tested compounds […], and […] were dissolved in dimethyl sulfoxide from 0.0006 to 10 μM in quadruplicate dilutions. […] The luminescence value was read on Microplate Reader (Molecular Device). […] The IC50 values of the corresponding compounds were then obtained by fitting by using the XLFit fitting tool in excel.

[3] = system: male ICR mice; test: Carrageenan-induced paw swelling in mice; format: in vivo; settings: 10 mg/kg intragastric
Method: (§1) The inhibiting effects of compounds H01, H07, H11, H12, H14, H15, H22, H25, H29, H30, H33, H39 and H44 on paw swelling in mice were determined after intragastric administration by using male ICR mice (ShanghaiSippr-BK laboratory animal Co. Ltd.), aged 8 weeks and weighing 22-24 g as test animals. The anti-inflammatory pharmacodynamics characteristic of the compounds of the invention was discussed.
A certain amount of compounds were taken and dissolved in 4% Tween 80/0.5% hydroxy propyl methyl cellulose solution. A volume of intragastric administration in mice was 10 ml/kg.
Mice were given 10 mg/kg compounds H01, H07, H11, H12, H14, H15, H22, H25, H29, H30, H33, H39, and H44 and the positive drug indomethacin (Diamond Reagent Co., Ltd., China) by intragastric administration at the dosages shown in the table below and 20 μL 1% (W/V) carrageenan was injected subcutaneously into the plantar 0.5 h later. A paw volume was measured with a paw swelling meter before and at different time points after modeling (0.5 h, 1 h and 2 h). According to the formula: paw swelling rate=(paw volume after administration−basic paw volume)/basic paw volume×100, the inhibiting effect of the compounds on paw volume was calculated. The basic paw volume was a paw volume before administration.

[4] = system: Sprague-Dawley (SD) mice; test: Concanavalin-induced paw swelling in mice; format: in vivo; settings: 10 mg/kg intragastric
Method: as §1, with “H13,” for “H01, H07, H11, H12,”, “H09, H11” for “H15, H22, H25, H29, H30, H33, H39”, “compounds of Example 12” for “H44”, “Sprague-Dawley (SD)” for “male ICR”, “6-7” for “8”, “160-180” for “22-24”
A certain amount of compounds were taken and dissolved in 4% Tween 80/0.5% hydroxy propyl methyl cellulose solution.
Mice were given compounds H01, H07, H11, H12, H14, H15, H22, H25, H29, H30, H33, H39, and H44 and the positive drug indomethacin (Diamond Reagent Co., Ltd., China) by intragastric administration at the dosages shown in the table below and 0.1 ml 0.03% (W/V) concanavalin was injected subcutaneously into the plantar 0.5 h later. A paw volume was measured with a paw swelling meter before modeling and 1 h, 2 h, 4 h and 6 h after modeling. According to the formula: paw swelling rate=(paw volume after administration−basic paw volume)/basic paw volume×100, the inhibiting effect of the compounds on paw volume was calculated. The basic paw volume was a paw volume before administration.

[5] = Pharmacokinetic test after intragastric administration; format: in vivo; settings: Sprague-Dawley, mouse, plasma, po, SD mice, 5 mg/kg intragastric
Method: Drug concentrations of compounds H01, H07, H11, H12, H14, H15, H22, H25, H29, H30, H33, H39 and H44 intragastrically administrated in plasma by using LC/MS/MS method at various time points were determined by using Sprague-Dawley (SD) […], aged 7-8 weeks and weighing […] as test animals. Pharmacokinetic behavior of the compounds of the invention in […] was studied and its pharmacokinetic characteristics were evaluated.
A certain amount of compounds was taken and dissolved in 50% PEG400/water to prepare a uniform solution.
Mice were administered intragastrically with the above compounds with a dosage of 5 mg/kg. Blood (0.2 ml) was taken from orbits before administration and 0.083 h, 0.25 h, 0.5 h, 1.0 h, 2.0 h, 4.0 h, 6.0 h, 8.0 h, 12.0 h and 24.0 h after administration. The blood was placed in anticoagulant tubes containing dipotassium ethylene glycol diethyl ether diamine tetraacetic acid, centrifugated at 6000 rpm at 4° C. for 10 minutes to separate plasma and saved at −80° C.
50 μL plasma at various time was taken and 150 μL acetonitrile solution containing internal standard tolbutamide (Sigma, USA) was added, mixed and stirred for 5 minutes. After centrifugation for 5 minutes at 12,000 rpm, 100 μL supernatant was taken, mixed with 200 μL water, following by sample injection and analysis.
Liquid chromatogram system was LC-20AD UFLC High Performance Liquid Chromatography system. Mass spectrum system was AB Sciex API4000 triple quadrupole mass spectrometer equipped with Electron Spray Ionization (ESI) (Applied Biosystems, Canada). A software for controlling liquid chromatography-mass spectrometry and quantitative analysis was Anna Rust 1.6 (Applied Biosystems, Canada). Pharmacokinetic parameters were analyzed by WinNonlin (version 5.2, Pharsight, Mountain View, […]) non-compartment model.
The test compound was dissolved in dimethyl sulfoxide to prepare a stock solution with a concentration of 1 mg/mL. The solution was diluted with 50% acetonitrile to obtain a series of standard working solutions with concentrations of 10 μg/mL, 3 μg/mL, 1 μg/mL, 0.3 μg/mL, 0.1 μg/mL, 0.03 μg/mL and 0.01 μg/mL, and a series of standard quality control solutions with concentrations of 8 μg/mL, 0.5 μg/mL, 0.03 μg/mL. 5 μL standard solution was mixed with 45 μL blank plasma substrate uniformly to obtain standard solutions of each concentration of a standard curve (1000 ng/mL, 500 ng/mL, 200 ng/mL, 100 ng/mL, 10 ng/mL, 5 ng/mL, 2 and 1 ng/mL) and quality control solutions (plasma samples: 800 ng/mL, 50 and 3 ng/mL).
Internal standard tolbutamide solid powder was dissolved in dimethyl sulfoxide to prepare a 1 mg/mL stock solution. The stock solution was diluted with 100% acetonitrile to obtain 200 ng/mL solution as a protein precipitation solution.

[6] = Collagen-induced rheumatoid arthritis model, clinical score; format: in vivo, mice; design: key: 0-4 per limb by redness/deformity, max 16 per animal; settings: clinical score 0-16 per animal, Day 0 (before modeling)
Method: (§2) The effects of compounds H07, H12, H14, H25, H30, H39 and H44 on rheumatoid arthritis in […] were determined after long term administration by using Lewis male […] (Beijing Vital River Laboratory Animal Technology Co., Ltd.), aged 5-6 weeks and weighing […] as test animals. The anti-inflammatory pharmacodynamics characteristic of the compounds of the invention was discussed.
(§3) A certain amount of compounds were taken and dissolved in 4% Tween 80/0.5% hydroxy propyl methyl cellulose solution. A volume of intragastric administration of mice was 10 ml/kg.
(§4) Collagen type II was dissolved in 0.1M acetic acid and kept in a 4° C. refrigerator overnight at a collagen concentration of 4 mg/mL. Same volume of incomplete Freund adjuvant (Sigma, USA) was added in collagen before injection in test, which was emulsified high speed homogenizer (30000 rpm) to prepare a collagen emulsion. This procedure was carried out on ice.
(§5) Mice were immunologically injected with the collagen emulsion by two separate times for modeling on days 1 and 7 (the day before modeling was day 0). 0.1 ml of collagen emulsion prepared as above was injected intradermally into a root of tail at a single point, and 0.2 ml was injected intradermally into back at two points. The animals were subjected to clinical score and paw volume test from day 10 to day 14 after modeling. Animals successfully modeled (average clinical score≥3 points/animal) were assigned to each administration group, with each group included 10 animals. They were administrated intragastrically with above compounds or resolvents at a dosage of 10 mg/kg twice/day, and administrated intragastrically with methotrexate (2 mg/kg, Sigma, USA) every three days, until day 27. During the test, the […] were scored twice a week, and the paw volume and body weight were measured twice.
(§6) According to the different degrees of lesions (redness and joint deformation), the scores were ranged from 0 to 4 points, with the highest score of 4 points for each limb and 16 points for each animal. Scoring standards are as follows: 0, no redness; 1, slight redness on mid legs (tarsals) or ankles; 2, slight redness from ankles to mid legs (tarsals); 3, medium redness from ankles to tarsometatarsal joints; 4, severe redness from toes or fingers to ankles or wrist joints.

[7] = system: Lewis male mice; test: as above; format: in vivo; design: key: 0-4 per limb by redness/deformity, max 16 per animal; settings: clinical score 0-16 per animal, compounds 10 mg/kg twice/day, methotrexate 2 mg/kg every three days
Method: as §2, §3, §4, §5, §6

AUC(0-t) ([5]; read-out: Area under the curve (AUC0-24, ng/ml · h)): 1720 ± 220 ng·h/mL
Cmax ([5]; read-out: Plasma concentration (Cmax, ng/ml)): 578 ± 72 ng/mL
half-life ([5]; read-out: half life (T1/2, h) (converted)): 2.13 ± 0.27 h
Structure (SMILES): CC[C@@H]1CN(C(=O)NCC(F)(F)F)CC1Nc1c(C#N)cnc2[nH]ccc12 (stereo partly shown) [Compound H01]
IC50 [1]: 0.013 µM
IC50 [2]: 0.67 µM
Paw swelling_0.5 h (%) ([3]; 0.5 h): 33.99 ± 1.69%
Paw swelling rate_1 h (%) ([3]; 1 h): 40.93 ± 1.64%
Paw swelling rate_2 h (%) ([3]; 2 h): 41.56 ± 5.23%
Paw swelling rate_1 h (%) ([4]; 1 h): 25.70 ± 1.50%
Paw swelling rate_2 h (%) ([4]; 2 h): 25.20 ± 2.40%
Paw swelling rate_4 h (%) ([4]; 4 h): 31.20 ± 3.10%
Paw swelling rate_6 h (%) ([4]; 6 h): 30.20 ± 3.10%

Structure (SMILES): CN(Cc1cnc2nc(N)nc(N)c2n1)c1ccc(C(=O)N[C@@H](CCC(=O)O)C(=O)O)cc1 [Methotrexate, reference compound]
Score Day 0 [6]: 0.00 ± 0.00
Score Day 13 ([7]; Day 13): 3.10 ± 0.43
Score Day 14 ([7]; Day 14): 3.60 ± 0.37
Score Day 18 ([7]; Day 18): 4.10 ± 0.47
Score Day 21 ([7]; Day 21): 6.45 ± 0.23
Score Day 25 ([7]; Day 25): 8.87 ± 0.21
Score Day 27 ([7]; Day 27): 9.65 ± 0.13
